In PMC12188386, “Selective CBP/EP300 Bromodomain Inhibitors: Novel Epigenetic Tools to Counter TNF-α-Driven Inflammation” (JACS Au, 2025):
Like-named read-outs stand apart in the source and are kept apart here. One block for each compound: values may come before it.

Columns and labels:
BRD4(1)-BRD = conditions: cited from earlier work
CBP-BRD [1] = target: CBP-BRD; parameters: method as in Pegg et al., 2017; Brooks et al., 2017; conditions: SPR, ref Pegg et al., 2017, Brooks et al., read-out: Affinity to CBP-BRD, Kd; cited from earlier work
kinetic solubility = format: physicochemical; conditions: PBS pH 7.4, 37°C, 90 min; ± st. dev. between technical replicates
Procedure: Starting from an initial concentration of 100, 50 or 20 µM, a 2-fold serial dilution of the compound (10 mM stock in DMSO) was prepared in a mixture of ACN/Buffer (PBS, pH = 7.4) 2:8, with 1% DMSO. 350 µL was transferred to a 96-Well Plate (Greiner, UV-star) then UV absorption (240-400 nm, 10 nm steps) was measured. The absorption was blank-corrected and plotted against concentration. The wavelength (λ) providing the best fitting straight line […]
(§1) was used as the calibration curve. To obtain saturated solutions of the compounds of interest, in duplicates 4.4 µL of a 10 or 5 mM stock in DMSO was added to 436 µL Buffer (PBS, pH = 7.4), to give a final concentration of 100 or 50 µM. Samples were incubated on a shaker (500 rpm) at 37°C for 90 minutes and then filtered (Millex-GV 13 mm, 0.22 µm). 304 µL of the filtrate was mixed with 76 µL of acetonitrile on a dilution plate, from which 350 µL was transferred to a UV-plate and UV-absorption was read using a SpectraMax M5 (Molecular devices). The absorbance was blank-corrected and compared to the calibration curve to […]
(§2) solubility. The wavelengths used for the calibration curve are available in Table S4.
(§3) Based on the known density of 12.5 % CAPTISOL® solution (d = 1.05755 g/mL at 25 °C), the precise weight of the resulting solution and so the required amount of water by weight was calculated. The water was added portion wise with agitation, vortexing and sonication cycles in between additions. The saturated solutions were then filtered (Millex-GV 13 mm, 0.22 µm). In duplicates, aliquots of the filtrates were taken and diluted with blank 12.5 % CAPTISOL® water solution in either a 1:14 (higher sol. compounds) or 1:7 (lower sol. compounds) ratio, 350 µL was transferred to a 96-Well Plate (Greiner, UV-star) then UV absorption (240-400 nm, 10 nm steps) was measured using a SpectraMax M5 (Molecular devices). The absorption was blank-corrected, compared to the calibration curve obtained during the solubility measurement method above and finally corrected for the dilution ratio to obtain the compound concentration in the saturated 12.5 % CAPTISOL® solution. The calculated concentrations are available in Table S4.
(§4) BROMOscan™ assays (provided by Eurofins DiscoverX, US)1,2 […]
coli host derived from the BL21 strain. E. coli were grown to log-phase and infected with T7 phage from a frozen stock (multiplicity of infection = 0.4) and incubated with shaking at 32°C until lysis (90-150 minutes). The lysates were centrifuged (5,000 x g) and filtered (0.2µm) to remove cell debris. Streptavidin-coated magnetic beads were treated with biotinylated small molecule or acetylated peptide ligands for 30 minutes at room temperature to generate affinity resins for bromodomain assays. The liganded beads were blocked with excess biotin and washed with blocking buffer (SeaBlock (Pierce), 1 % BSA, 0.05 % Tween 20, 1 mM DTT) to remove unbound ligand and to reduce non specific phage binding. Binding reactions were assembled by combining bromodomains, liganded affinity beads, and test compounds (see […]
Sodium azide, 7.4 mM DTT). All reactions were performed in polypropylene 384-well plates in a final volume of 0.02 mL. The assay plates were incubated at room temperature with […]
20). The beads were then resuspended in elution buffer (1x PBS, 0.05% Tween 20, 2 µM non-

[2] = system: immune cell recruitment to the popliteal lymph node; assay: TNF-α induced inflammation model, flow cytometry of pLN; format: in vivo, mouse; conditions: mice, flow cytometry 5 h post-injection of rmTNF-α, vs control group
CBP-BRD [3] = conditions: TR-FRET; ref Crawford et al., 2016; read-out: Affinity to CBP-BRD, IC50 (Published); cited from earlier work
[4] = system: TNF-α-induced IL-8 secretion from THP-1 cells; assay: cytokine protein measurement (LEGENDPlex); format: cell-based, human; conditions: 10 ng/mL TNF-α, 1 μM compound
Procedure: For cytokine expression determination, 5x10^5 THP-1 cells were plated on 12 well plates the day prior to treatment with 10 ng/mL recombinant human TNF -α (aa 77-233) protein (R&D systems, 10291 -TA) and compounds at a final concentration of 0.1 % DMSO. In all cases, total […]
Cytokine protein measurements
THP-1 cells were plated and treated as for the quantitative RT -PCR, then the cell culture medium was harvested by pelleting the cells (300g, 3min) and taking the supernatant .
Cytokine protein concentrations were determined using the LEGENDPlexTM Human Inflammation Panel 1 (BioLegend) assay with 25 µL of culture medium following the manufacturer’s instructi ns. amp es were ana zed f w c t metr n an rtessa Biosciences), and data was analyzed using LEGENDPlex software (BioLegend).

[5] = concentration in saturated 12.5% CAPTISOL solution; format: physicochemical; conditions: filtered 12.5 w/v% CAPTISOL in water, st. dev. between technical replicates (n=2)
Procedure: as §1, §2
Sample preparation in CAPTISOL® […]
as §3, with “lower solubility (2) compounds respectively in a 12.5 w/v% CAPTISOL® solution in water. In a precisely tared vial, required amounts of compounds and CAPTISOL® were weighed out as solids. Based” for “Based”
as §4
coli host derived from the BL21 strain. […]

MRC5 cells = assay: viability assay (resazurin); format: cell-based; conditions: three-day treatment, concentration resulting in 70 % viability
Procedure: MRC5 (2x10^3 cells/well) or THP-1 (8x10^3 cells/well) cells were plated onto 96 well plates and treated with compounds at a final DMSO concentration of 0.5 % (MRC5) or 0.1 % (THP-1).
After 3 days of treatment, resazurin (Acros Organics) was added at a final concentration of 86 μ and incu ated for 2h15 (MRC5) or 3 h (THP-1). Fluorescence (ex. 560 nm, em. 590 nm) was read using a SpectraMax M5 (Molecular devices). GI30 values were calculated as the compound concentration resulting in 70 % viability compared to DMSO treated controls using a nonlinear regression fit using GraphPad Prism with the following equation: (Y=Bottom + (100-Bottom)/(1+(IC50/X)^HillSlope)). […]
After 1.5 h, mice were injected with 10 µL of the prepared CAPTISOL […]
foodpad and also intraperitoneally (for i.p. injection, the 10 µL of CAPTISOL solution was diluted to a final volume of 100 µL using PBS). Organs were collected 5 h after TNF-α […]
LEGENDPlexTM assays (Mouse Pro-inflammatory Chemokine Panel and Mouse Inflammation Panel; Biolegend) were performed to monitor cytokine/chemokine expression. Briefly, popliteal LNs were collected and carefully disrupted in […] ice-cold phosphate buffer, minimizing cell rupture. The suspension was centrifuged at 1,500 rpm for 5 min, and the […]

[6] = system: TNF-α-induced cytokine expression in THP-1 cells; assay: cytokine mRNA expression by RT-qPCR; format: cell-based, human; conditions: 1 h co-treatment of THP-1 cells with 10 ng/mL TNF-α and 1 μM compound
Procedure: For cytokine expression determination, 5x10^5 THP-1 cells were plated on 12 well plates the day prior to treatment with 10 ng/mL recombinant human TNF -α (aa 77-233) protein (R&D systems, 10291 -TA) and compounds at a final concentration of 0.1 % DMSO. In all cases, total
RNA was extracted using the NucleoSpin® RNA kit (Machery -Nagel) and used for cDNA synthesis with the High -Capacity cDNA Reverse Transcription kit (Applied Biosystems). RT-qPCR reactions were performed using PowerSYBR™ green PCR Master Mix (Applied Biosystems) and a LightCycler® 480 (Roche). cDNA was denatured for 10 min at 95 °C followed by 40 cycles of 15 s at 95 °C and 1 min at 60 °C. Cp values were determined as the maximum of the second derivative and target gene expression was compared to that of hprt from the same sample using the 2-ΔCp method. Gene expression was then normalized to the average of the control samples from the same day, or all biological replicates. […]

CBP-BRD [7] = conditions: ITC; ref Picaud et al., 2015; Popp et al., 2016; read-out: Affinity to CBP-BRD, Kd; cited from earlier work

SMILES: CO[C@H]1CC[C@H](n2c([C@@H]3CCCC(=O)N3c3ccc(F)c(F)c3)nc3cc(-c4c(C)noc4C)ccc32)CC1 [CCS1477]
Sel. over BRD4(1)-BRD (BRD4(1)-BRD; ref Pegg et al., 2017, Brooks et al.): 130 fold
Kd (CBP-BRD [1]): 1.7 nM

Kin. Sol. (kinetic solubility): 75.1 ± 1.0 µM
Conc. in 12.5% Captisol sol. [5]: 715 ± 12 µM
SMILES: CC(=O)N1CCc2c(c(Nc3ccc(-c4cnn(C)c4)cc3F)nn2[C@H]2CCOC2)C1 [GNE-272, reference compound]
recruitment of lymphocytes (T and B cells), dendritic cells and neutrophils to the pLN [2]: significantly inhibited the recruitment of lymphocytes
IC50 (CBP-BRD [3]): 20 nM
TNF-α-induced IL-8 protein secretion [4]: significantly reducing its TNF-α-induced secretion
GI30 (MRC5 cells): > 10000 nM
TNF-α-induced expression of il1β, il8, mcp-1 and tnf-α (mRNA) [6]: inhibited expression to a greater extent than the less potent but more soluble inhibitor 5

SMILES: CCC(=O)N1CCOc2c(cc(-c3ccc(OC)c(OC)c3)cc2OC[C@H]2CCCN(C)C2)C1 [I-CBP112]
Kd (CBP-BRD [7]): 151 nM
Sel. over BRD4(1)-BRD (BRD4(1)-BRD; ref Picaud et al., 2015, Popp et al., 2016): 37 fold
